# Test results published in patent US11191773B2, “Methods of treatment for bacterial infections” (President and Fellows of Harvard College, priority 2017, dated 2021).
# How the values were obtained:
# [1] = test system: ΔtolC; experiment: Minimum inhibitory concentration assay; type: cell-based, E. coli; settings: Escherichia coli, 15 h, read-out: Minimum inhibitory concentration
# Experimental: (§1) We wondered whether it would be possible to separate novobiocin's ability to suppress the IptFG(ch) defects in vivo from its activity against DNA gyrase, its presumed primary target. […] Minimum inhibitory concentrations were measured after a 15-hr incubation period at 37° C.
# (§2) Overnight cultures were prepared by transferring 5 mL of sterile LB Miller media to culture tubes and inoculating with the corresponding organism. The tubes were allowed to shake at 220 rpm, 37° C. overnight. 15 μL of overnight culture was diluted in 15 mL of LB Miller in a Falcon tube and was vortexed to mix. In a 96-well plate, 100 μL of diluted culture was added to each well. To column #1, an additional 100 μL of diluted culture and test compound was added (93.7 μL culture+6.35 μL 10 mg/mL novobiocin) or (94.2 μL culture+5.87 μL 10 mg/mL 1-adamantyl-novobiocin) such that the highest concentration tested was 500 μM. Transferred 100 μL from column #1 into column #2, etc, and mixed each time thoroughly. Repeated serial dilution until column #11. Incubated the plate at 37° C. overnight (˜16 h) and read the turbidity (OD600) using a Spectramax 384 plus plate reader (Molecular Devices).
# [2] = test system: wild type; experiment: Minimum inhibitory concentration assay; type: cell-based, E. coli; settings: Escherichia coli, 15 h, read-out: Minimum inhibitory concentration
# Experimental: as §1, §2
# [3] = test system: lptB1; experiment: Minimum inhibitory concentration assay; type: cell-based, E. coli; settings: Escherichia coli, 15 h, read-out: Minimum inhibitory concentration
# Experimental: as §1, §2
# [4] = test system: wild-type A. baumannii; experiment: Checkerboard microdilution assay with PMB, PMBN, novobiocin, novobiocin aglycone; type: cell-based
# [5] = test system: IptFG(ch) mutant; experiment: Rescue of growth of coupling helix mutant (plating and disk assays); type: cell-based, E. coli
# Experimental: FIG. 8B is a series of pictures of bacterial overnight cultures grown in minimal medium. The cultures were serially diluted ten-fold and spotted onto LB agar plates with and without compounds.
# FIG. 15 is a picture of bacterial lawns grown on plates in the presence of disks containing antibiotics. […] Strains were grown overnight in minimal media and then plated on LB plates. Each disk contained 5 μg compound.
# The coupling helices in LptFG each contain a strictly-conserved glutamate, and changing both glutamates to alanine (IptFG(ch)) causes a lethal loss of function (FIG. 8B, LB panel). […] Because novobiocin also contacts R91 (FIG. 7C), we speculated that it might rescue growth of IptFG(ch) by masking the charge. […] We conclude that novobiocin suppresses Lpt defects in vivo by interacting with LptB at R91; therefore, novobiocin interacts with LptB in cells in a similar manner to that observed in the crystal structure.
# Disk diffusion assays were performed as described in Sherman et al., Proc. Natl. Acad. Sci. USA 2014, 111, 4982-4987. Premade Sensi-Disc (BD-Beckton, Dickinson and Company) were used for bacitracin 10IU, erythromycin 15 μg, novobiocin 30 μg, and rifampin 5 μg.
# Efficiency of plating assays were performed on indicated media using the method described in Butler et al., J. Bacteriol. 2013, 195, 4639-4649.
# [6] = target: T1, LptB2LptFG(ch)C complexes (Escherichia coli, UniProt P0A9V1); experiment: LPS-release assay, right-side-out vesicles to LptA*; type: biochemical, E. coli; settings: 30° C. (FIG. 9C)
# T1 construct: made in house; host or cells: right-side-out membrane vesicles from E. coli BL-21(λDE3) overexpressing the complex
# T1 sequence (P0AF98 whole entry E84A): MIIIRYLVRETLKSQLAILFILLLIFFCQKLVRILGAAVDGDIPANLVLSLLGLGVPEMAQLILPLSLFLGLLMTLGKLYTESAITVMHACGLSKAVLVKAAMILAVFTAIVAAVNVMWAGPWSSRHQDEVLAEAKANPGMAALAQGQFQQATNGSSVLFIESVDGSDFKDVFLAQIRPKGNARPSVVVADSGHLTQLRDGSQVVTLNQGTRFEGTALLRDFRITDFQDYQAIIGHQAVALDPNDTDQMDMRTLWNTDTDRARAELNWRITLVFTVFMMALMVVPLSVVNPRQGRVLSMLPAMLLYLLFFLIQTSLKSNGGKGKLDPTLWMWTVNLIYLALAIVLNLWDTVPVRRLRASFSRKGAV
# T1 sequence (P0ADC6 whole entry E88A, further chain): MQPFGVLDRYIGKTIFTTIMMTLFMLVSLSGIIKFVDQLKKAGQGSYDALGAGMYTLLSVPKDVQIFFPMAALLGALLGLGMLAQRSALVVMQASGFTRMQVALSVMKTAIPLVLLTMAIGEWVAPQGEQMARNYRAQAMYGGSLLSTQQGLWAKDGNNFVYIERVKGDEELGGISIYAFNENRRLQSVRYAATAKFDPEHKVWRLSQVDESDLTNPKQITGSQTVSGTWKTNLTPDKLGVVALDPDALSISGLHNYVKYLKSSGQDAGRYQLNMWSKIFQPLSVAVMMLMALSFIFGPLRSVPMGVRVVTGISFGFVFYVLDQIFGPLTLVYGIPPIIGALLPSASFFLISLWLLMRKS
# T1 sequence (P0A9V1 2-241): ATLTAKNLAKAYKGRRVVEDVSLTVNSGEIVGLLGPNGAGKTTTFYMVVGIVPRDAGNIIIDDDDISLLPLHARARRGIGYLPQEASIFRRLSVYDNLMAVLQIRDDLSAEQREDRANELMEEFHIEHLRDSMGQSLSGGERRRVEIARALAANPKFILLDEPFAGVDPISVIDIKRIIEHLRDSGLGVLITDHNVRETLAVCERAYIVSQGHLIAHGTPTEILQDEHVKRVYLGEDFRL
# T1 sequence (P0ADV9 whole entry, further chain): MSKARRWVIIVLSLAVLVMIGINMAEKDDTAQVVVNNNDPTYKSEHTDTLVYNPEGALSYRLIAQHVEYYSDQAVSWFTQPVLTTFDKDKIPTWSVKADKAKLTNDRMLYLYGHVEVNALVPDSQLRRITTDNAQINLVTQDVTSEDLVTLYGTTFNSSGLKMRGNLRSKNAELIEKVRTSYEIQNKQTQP
# Experimental: FIG. 9A is a schematic drawing showing the assay to monitor LPS release from right-side-out vesicles to LptA* (LptA(I36pBPA)). Vesicles containing overexpressed wild-type or mutant LptB2FGC complexes were incubated with LptA* and ATP at 30° C. to initiate LPS extraction and transport from the vesicles to LptA*. Samples were taken at different time points and UV-irradiated to crosslink LPS to LptA*, and accumulation of LPS-LptA* adducts was detected using LPS immunoblots.
# The assay detects via immunoblot LPS that becomes crosslinked to LptA* in the presence of UV light. […] By comparison, vesicles containing LptB2LptFG(ch)C complexes released less LPS over time (FIG. 9B, lanes 5-8). These experiments provide direct evidence that the amino acid changes in LptFG(ch), which were known to affect complex formation with LptB, impair LPS release. […] These compounds also increase LPS release from vesicles containing wild-type LptB2FGC complexes or LptB(R91 S)2FGC complexes (FIG. 17).
# The in vitro LPS-transport experiments in FIGS. 9B, 9C, and 17 were set-up as described in (Okuda et al. Science 2012, 338, 1214-1217) with some modifications. […]
# Immunoblotting was used to assess LptA*-LPS levels in each sample. […] LptA levels were assessed similarly, using rabbit anti-LptA antiserum followed by donkey anti-rabbit horseradish peroxidase conjugate (GE Amersham). […]
# [7] = test system: polymyxin-resistant E. coli (clinical isolate from Brigham and Women's Hospital); type: cell-based; settings: 37° C. for 24 h
# Experimental: The effect of novobiocin/polymyxin combination was further assessed in polymyxin-resistant strains using checkerboard microdilution assays. In these assays, polymyxin-resistant strains (E. coli (clinical isolate from Brigham and Women's Hospital); A. baumannii (ATCC: 19606) mutant that is novobiocin and polymyxin-resistant; and K. pneumoniae (clinical isolate from Brigham and Women's Hospital)) were grown at 37° C. for 24 h.
compound,measurement,setting,value
"CO[C@@H]1[C@@H](OC(N)=O)[C@@H](O)[C@H](Oc2ccc3c(O)c(NC(=O)c4ccc(O)c(CC=C(C)C)c4)c(=O)oc3c2C)OC1(C)C [Novobiocin, novobiocin]",MIC,[1],2 µM
same,MIC,[2],62.5 to 125 µM
same,MIC,[3],< 0.5 µM
same,synergy with PMBN,[4],exhibits synergy
same,suppression of lethality of IptFG(ch),"[5]; disks on LB plates, each disk 5 μg compound (FIG. 15)",suppressed the lethality of IptFG(ch)
same,rescue of growth of IptFG(ch),[5]; serial dilutions spotted onto LB agar plates with compound (FIG. 8B),enables the IptFG(ch) mutant to grow
same,LPS release from vesicles to LptA*,[6],stimulate LPS release from the LptB2LptFG(ch)C vesicles in a concentration dependent manner
same,synergy with polymyxin B,[7],synergizes with polymyxin B
